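Compound exposure: 48 hours, 5 concentrations, 96-well plates. Definition used: TGI = concentration required for complete inhibition of growth.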

For 13 compounds, TGI results are on record in PubChem BioAssay (NCI).

Among the test systems are 786-0 renal; HS 578T breast; M14 melanoma; MCF7 breast; MDA-MB-231 breast; MDA-MB-435; NCI-H460 lung; OVCAR-3 ovarian; OVCAR-4 ovarian; OVCAR-8 ovarian; SF-268 CNS; SF-295 CNS; SK-MEL-2 melanoma; SW-620 colon; T-47D breast; TK-10 renal; U251 CNS; NCI-H522 lung.
What all share (experiment): NCI tumour cell line growth inhibition, 48 h

For the compound `COc1cc2c(cc1OC)C(=O)/C(=C/c1ccc([N+](=O)[O-])cc1)CC2`, the TGI with 786-0 renal, in the assay with HS 578T breast, in the assay on M14 melanoma, in the assay on MCF7 breast, with MDA-MB-231 breast and with MDA-MB-435 was more than 10 µM in each case. For the same compound, the TGI with NCI-H460 lung, in the assay on OVCAR-3 ovarian, with OVCAR-4 ovarian, with OVCAR-8 ovarian, in the assay on SF-268 CNS and in the assay on SF-295 CNS was more than 10 µM each time. The TGI in the assay on SK-MEL-2 melanoma, in the assay on SW-620 colon, in the assay on T-47D breast, with TK-10 renal and with U251 CNS was more than 10 µM each time.

`CC1C(O)Oc2cc3c(cc2C1c1ccccc1O)OCO3` (stereo not given): the TGI is more than 100 µM in the assay with 786-0 renal; 46.6 µM in the assay on HS 578T breast; more than 100 µM with M14 melanoma; more than 100 µM with MCF7 breast; 65.4 µM with MDA-MB-231 breast; more than 100 µM in the assay with MDA-MB-435. The TGI in the assay on NCI-H460 lung is 64.1 µM; with NCI-H522 lung, 42.9 µM; with OVCAR-3 ovarian, 99 µM; with OVCAR-8 ovarian, more than 100 µM; in the assay with SF-268 CNS, more than 100 µM; in the assay on SF-295 CNS it was 65.5 µM. For the same compound, the TGI was 83.8 µM in the assay with SK-MEL-2 melanoma; more than 100 µM with SW-620 colon; more than 100 µM with T-47D breast; 89.6 µM with TK-10 renal; more than 100 µM in the assay with U251 CNS.

For `Cc1ccc(/C=N/NS(=O)(=O)c2ccc(/C=C3\NC(=O)NC3=O)cc2)cc1`, the TGI in the assay on 786-0 renal was more than 100 µM; in the assay on HS 578T breast, 81.6 µM; in the assay on M14 melanoma it was more than 100 µM; with MCF7 breast, more than 100 µM; in the assay with MDA-MB-231 breast it was more than 100 µM; in the assay on MDA-MB-435, more than 100 µM. In addition, the TGI was more than 100 µM in the assay on NCI-H460 lung; more than 100 µM in the assay with OVCAR-3 ovarian; more than 100 µM in the assay on OVCAR-4 ovarian; more than 100 µM with OVCAR-8 ovarian; 57.7 µM in the assay with SF-268 CNS; more than 100 µM in the assay on SF-295 CNS. Also, the TGI with SK-MEL-2 melanoma, in the assay with SW-620 colon, in the assay on T-47D breast, in the assay on TK-10 renal and with U251 CNS was more than 100 µM throughout.

Consider `COc1cccc(C2c3cc4c(cc3OC(N3CCCCC3)C2C)OCO4)c1OC` (stereo not given), for which the TGI is more than 100 µM in the assay on 786-0 renal; 29.5 µM in the assay with HS 578T breast; 47.1 µM in the assay with M14 melanoma; 52.1 µM with MCF7 breast; 41 µM in the assay with MDA-MB-231 breast; 33.8 µM in the assay on MDA-MB-435. For the same compound, the TGI was 27.9 µM in the assay with NCI-H460 lung; 29 µM in the assay with NCI-H522 lung; 20.7 µM in the assay on OVCAR-3 ovarian; more than 100 µM in the assay with OVCAR-8 ovarian; 48.4 µM with SF-268 CNS; 22.5 µM in the assay on SF-295 CNS. Besides, the TGI in the assay on SK-MEL-2 melanoma was found to be 26 µM; in the assay on SW-620 colon it was 68.9 µM; in the assay with T-47D breast it was 54.2 µM; with TK-10 renal, 84.1 µM; in the assay on U251 CNS, 51.5 µM.

As to `C=C(CN)CO[Si](C)(C)C(C)(C)C`, the TGI with 786-0 renal, in the assay with HS 578T breast, with M14 melanoma, in the assay with MCF7 breast, in the assay with MDA-MB-231 breast and in the assay with MDA-MB-435 was more than 100 µM throughout. The TGI in the assay on NCI-H460 lung, with NCI-H522 lung, with OVCAR-3 ovarian, in the assay on OVCAR-8 ovarian, with SF-268 CNS and with SF-295 CNS was more than 100 µM in each case. In addition, the TGI in the assay with SK-MEL-2 melanoma, in the assay with SW-620 colon, in the assay on T-47D breast, with TK-10 renal and in the assay with U251 CNS was more than 100 µM in each case.

Take `c1cc(C[S+]2CCCC2)sc1C[S+]1CCCC1`: the TGI in the assay on 786-0 renal, with HS 578T breast, in the assay with M14 melanoma, in the assay on MCF7 breast, in the assay on MDA-MB-231 breast and in the assay on MDA-MB-435 was more than 100 µM each time. Further, the TGI with NCI-H460 lung, in the assay on NCI-H522 lung, in the assay on OVCAR-3 ovarian, with OVCAR-4 ovarian, in the assay on OVCAR-8 ovarian and in the assay on SF-268 CNS was more than 100 µM each time. Moreover, the TGI in the assay on SF-295 CNS, in the assay with SW-620 colon, in the assay with T-47D breast, with TK-10 renal and in the assay with U251 CNS was more than 100 µM throughout.

For the compound `CCn1c2ccccc2c2cc(NC(=O)c3c(NCCNCCO)nc(=O)[nH]c3C)ccc21`, the TGI in the assay with 786-0 renal, with HS 578T breast, in the assay with M14 melanoma, with MCF7 breast, in the assay on MDA-MB-231 breast and with MDA-MB-435 was more than 100 µM in each case. Moreover, the TGI in the assay with NCI-H460 lung, in the assay with NCI-H522 lung, in the assay on OVCAR-3 ovarian, with OVCAR-4 ovarian, in the assay on OVCAR-8 ovarian and with SF-268 CNS was more than 100 µM each time. In addition, the TGI in the assay on SF-295 CNS, in the assay on SW-620 colon, in the assay with T-47D breast, in the assay on TK-10 renal and in the assay on U251 CNS was more than 100 µM in each case.

For the compound `COC(=O)[C@H](COC(=O)/C=C/c1ccc(OC(C)=O)c(OC(C)=O)c1)NC(=O)/C=C/c1ccc(OC(C)=O)c(OC(C)=O)c1`, the TGI with 786-0 renal is 32.1 µM; in the assay on HS 578T breast it was 49.7 µM; in the assay on M14 melanoma it was 54.3 µM; with MCF7 breast, more than 100 µM; in the assay on MDA-MB-231 breast, 36.8 µM; in the assay with MDA-MB-435, 45.5 µM. In addition, the TGI in the assay on NCI-H460 lung is 53.9 µM; with OVCAR-3 ovarian, 33.5 µM; with OVCAR-4 ovarian, 38.9 µM; with OVCAR-8 ovarian, 67.4 µM; in the assay with SK-MEL-2 melanoma it was 35.2 µM; in the assay with SW-620 colon, more than 100 µM. The results for the TGI in the assay with T-47D breast and in the assay on U251 CNS were 14.4 µM and more than 100 µM, respectively.

Regarding `CCOP(=O)(OCC)C(F)(F)Cc1cnc(C)c2c1COC(C)(C)O2`, the TGI in the assay with 786-0 renal, with HS 578T breast, in the assay with M14 melanoma, in the assay on MCF7 breast, with MDA-MB-231 breast and in the assay with MDA-MB-435 was more than 10 µM each time. The TGI with NCI-H460 lung, with OVCAR-3 ovarian, with OVCAR-4 ovarian, in the assay with OVCAR-8 ovarian, with SF-268 CNS and in the assay on SF-295 CNS was more than 10 µM each time. Besides, the TGI with SK-MEL-2 melanoma, in the assay on SW-620 colon, in the assay with T-47D breast, in the assay on TK-10 renal and in the assay with U251 CNS was more than 10 µM in each case.

Take `N#CC(c1ccccc1)N(CCOCCOCCN(C(=O)c1cccc2ccccc12)C(C#N)c1ccccc1)C(=O)c1cccc2ccccc12` (stereo not given): the TGI in the assay with 786-0 renal, in the assay with HS 578T breast, in the assay with M14 melanoma, with MCF7 breast, in the assay on MDA-MB-231 breast and with MDA-MB-435 was more than 100 µM throughout. Moreover, the TGI with NCI-H460 lung, in the assay with OVCAR-3 ovarian, in the assay on OVCAR-4 ovarian, in the assay on OVCAR-8 ovarian, with SF-268 CNS and with SF-295 CNS was more than 100 µM throughout. The TGI in the assay with SK-MEL-2 melanoma, with SW-620 colon, in the assay on T-47D breast, in the assay with TK-10 renal and in the assay on U251 CNS was more than 100 µM throughout.

Regarding `CC1(O)Oc2ccc3ccccc3c2C=C1C(N)=O` (stereo not given), the TGI with 786-0 renal was more than 100 µM; in the assay with HS 578T breast, more than 100 µM; in the assay on M14 melanoma, more than 100 µM; with MCF7 breast, more than 100 µM; in the assay with MDA-MB-231 breast, 93.8 µM; in the assay with MDA-MB-435, more than 100 µM. For the same compound, the TGI with NCI-H460 lung, in the assay with OVCAR-4 ovarian, in the assay on SF-268 CNS, with SF-295 CNS, in the assay on SK-MEL-2 melanoma and in the assay on SW-620 colon was more than 100 µM in each case. For the same compound, the TGI in the assay on T-47D breast, in the assay with TK-10 renal and in the assay on U251 CNS was more than 100 µM throughout.

As for `C=CCC1C(=O)Nc2cccc3ncn(c23)C1=O` (stereo not given), the TGI in the assay on 786-0 renal, in the assay on HS 578T breast, in the assay with M14 melanoma, in the assay with MCF7 breast, in the assay with MDA-MB-231 breast and in the assay with MDA-MB-435 was more than 100 µM each time. For the same compound, the TGI in the assay with NCI-H460 lung, in the assay on OVCAR-3 ovarian, in the assay with OVCAR-4 ovarian, in the assay with OVCAR-8 ovarian, with SF-268 CNS and in the assay with SF-295 CNS was more than 100 µM in each case. Besides, the TGI in the assay on SK-MEL-2 melanoma, in the assay on SW-620 colon, with T-47D breast and with U251 CNS was more than 100 µM in each case.

For `O=C1COCCN1C(=O)c1ccccc1Cl`, the TGI in the assay with 786-0 renal, with HS 578T breast, in the assay with M14 melanoma, in the assay with MCF7 breast, in the assay with MDA-MB-231 breast and in the assay on MDA-MB-435 was more than 100 µM each time. Also, the TGI with NCI-H460 lung, with NCI-H522 lung, in the assay with OVCAR-3 ovarian, in the assay with OVCAR-4 ovarian, in the assay with OVCAR-8 ovarian and in the assay on SF-268 CNS was more than 100 µM throughout. The TGI in the assay on SF-295 CNS, with SW-620 colon, in the assay on T-47D breast, in the assay with TK-10 renal and in the assay with U251 CNS was more than 100 µM in each case.
